Source: a melting point compilation (Tetko et al.; mined from patent text by program, amines drawn as free bases though some values may be those of a salt)

melting point [°C]	SMILES
173 to 174	Cc1oc(-c2ccccc2)nc1CCC(=O)c1ccc(CCC2OC(=O)NC2=O)cc1 (configuration not stated)
188 to 190	CS(=O)(=O)c1ccc(-c2cnn(Cc3ccccc3)c(=O)c2Oc2ccc(F)cc2)cc1
> 300	O=C(O)c1ccc(-c2nc(-c3ccncc3)cs2)cc1
101 to 103	CCCc1c(OC(C)c2cccc(C(=O)O)c2)ccc(C(C)=O)c1O (configuration not stated)
236 to 237	Cc1cccc(C)c1NC(=O)Nc1sc2cc3c(cc2c1-c1ccccc1Cl)CCC3
231 to 232	Cc1ccc(-c2c(C(=O)Nc3nccs3)nc(-c3cccc4ccccc34)n2Cc2ccccc2)cc1
201 to 204	CCc1nc2cc(C(=O)NC)c(Cl)cc2n1-c1ccc(CCOC(=O)NS(=O)(=O)c2ccc(C)cc2)cc1
258 to 260	N#CCc1ccc(-c2coc3cc(O)c(O)cc3c2=O)cc1
138 to 140	O=C(Cn1c2c(c3ccccc31)CCNCC2)Nc1cccnc1
208 to 209	O=C(O)c1ccc(C(=O)/C=C/c2cc(-c3cccs3)ccc2N2CCCC2)cc1
116 to 118	CC(O)COc1ccc(-c2ccc(C(CC3CCOCC3)c3ccc(S(=O)(=O)C4CC4)cc3)[nH]2)nc1 (configuration not stated)
180 to 181	CS(=O)(=O)c1ccc(-c2ccccc2-c2ccc(F)c(Cl)c2)cc1
200 to 201	CCn1nc(-c2ccccc2)c(C(C)=O)c(Nc2ccc([N+](=O)[O-])cn2)c1=O
105 to 106	CCOC(=O)c1ccc(-c2csc(-c3ccc(Cl)cc3)n2)cc1
125	COc1ccc(CN(C)CCc2ccc(NC(=O)c3cccc4c(=O)c5cccc(F)c5[nH]c34)c(C)c2)cc1OC
196 to 197	CN(C(=O)c1cccc2ccccc12)[C@H](Cc1ccc(C(F)(F)F)cc1)[C@@H](O)c1ccc(F)cc1 (racemic)
127 to 129	CCc1ccc(-c2ccc3c(c2)C=C(C(=O)Nc2ccc(CN(C)C4CCOCC4)cc2)CCN3C)cc1CC
104 to 108	CCc1ccc(Nc2c(F)c(F)cc(F)c2F)c(CC(=O)OC(C)(C)C(=O)O)c1
78.2 to 78.4	COc1ccc(-c2cccc(Cn3cncn3)c2)cc1Cl
196 to 200	Cc1nc2cc3c(cc2c(=O)[nH]1)C(N(C)c1ccc(C(=O)NC(C(=O)O)c2ccc(CC(=O)O)cc2)c(F)c1)CC3 (mixture of isomers)
165 to 167	O=C1c2cccc(OCc3ccccc3)c2-c2nn(CCNCCO)c3ccc(Cl)c1c23
168 to 169	CCc1cc(OCc2ccc(-c3ccccc3-c3nnn(C(c4ccccc4)(c4ccccc4)c4ccccc4)n3)cc2)c2nc(OCC=O)ccc2n1
255 to 258	Cc1cccc(-c2nc(C(C)C)[nH]c2-c2cccc(-c3ccc(S(N)(=O)=O)cc3)c2)n1
120	O=C(O)c1ccc(CNC(=O)C2Cc3ccccc3N2S(=O)(=O)c2ccc(-c3cccc(C(F)(F)F)c3)cc2)cc1 (configuration not stated)

The remaining lines, values behind:

SMILES	melting point [°C]
CC1=CC(C)(C)N2C(=O)C(=O)c3cccc1c32	170 to 176
CCCCN=C(c1cc(Cl)ccc1O)c1ccccc1Cl	49.6
COC1(OC)CCN(Cc2ccccc2)CC1O (configuration not stated)	90.1
C=CCc1cc(C)cc(C(Nc2ccc(C(=N)N)cc2)C(=O)O)c1OCCO (racemic)	228
O=C(NN=Cc1ccnc2ccccc12)c1ccc(Cl)cc1	233
O=C(c1ccc([N+](=O)[O-])cc1)N1CCC[C@@H]2CCCC[C@H]21 (relative stereo)	84 to 87
C(=Cc1ccc(C=Cc2ccccc2)c2ccccc12)c1ccccc1	189
CCCCNC[C@@H](O)[C@H](Cc1ccccc1)NC(=O)OCc1ccccc1	118 to 120
CN(C)c1ccc(C(=O)C(C)(C)N2CCOCC2)cc1	152 to 155
Cc1cc(C)n(C(c2ccccc2)(c2ccccc2)c2ccccc2Cl)n1	195 to 197
CC(C)(C)OC(=O)N[C@@H](Cc1ccccc1)C(=O)CCC(=O)N[C@@H](Cc1c[nH]c2ccccc12)C(=O)O	141 to 143
O=C(O)C(=O)N1CCC(=Cc2ccccc2)CC1	125
CSc1nc(=O)n(-c2ccc(Cl)cc2)c(=O)[nH]1	292 to 295
Cc1ncc(CN2CCN(c3ccccc3C)CC2)c(N)n1	189 to 190
COC1(c2cc(Sc3ccc(/C(C)=N/O)cc3)nc(N)n2)CCOCC1	237 to 240
C=CCn1c(SC(Cl)=C(Cl)C#N)nnc1C(F)(F)F	45 to 48
Nc1c(Cl)nc(C2CC2)nc1Cl	54
COc1ccc(C(=O)c2ccc([N+](=O)[O-])cc2)cc1OC	160 to 162
COc1ccc2c(Cl)cc3nc(C(=O)O)cn3c2c1	277 to 278
CC(C)c1csc(/C=C/c2cc(N)ccc2Cl)n1	82 to 85
CC(C)Cn1c(C(O)c2ccccc2)nc2cnc3ccccc3c21 (configuration not stated)	160 to 166
COc1ccc2nc(O)nc(O)c2c1	> 290

SMILES	melting point [°C]
COc1cc(OC)cc(-c2ncn(-c3cc(OC)c(OC)c(OC)c3)c2-c2ccc(OC)c(O)c2)c1	110 to 111
CCCC(=O)C1=C(O)CC(c2c(C)c(C)c(C)c3c2OC(C)C3C)CC1=O (configuration not stated)	119 to 120
COc1ccc(C(=O)c2cc3ccncc3[nH]2)cc1	225 to 228
COc1ccsc1C1OC(=O)NC1=O (configuration not stated)	156 to 158
CN(C)C(=O)c1c(Oc2ccccc2)cccc1Oc1ccccc1	109 to 111
COc1cc(-c2oc3ccccc3c(=O)c2C(=O)O)cc(OC)c1OC	260 to 262
COC(=O)CC[C@H]1CC[C@@H](NC(=O)N(NC(C)=O)c2ccc(C#N)cc2)CC1	132 to 134
COc1ccc2cc(C(=O)C(C)OS(C)(=O)=O)ccc2c1 (configuration not stated)	149 to 151
COC(=O)c1cc(C)sc1Nc1ccc(F)cc1[N+](=O)[O-]	149 to 151
CC(=O)NCCNCC(O)COc1ccc(CCOCC2CCC2)cc1 (configuration not stated)	108
CC(C)N(C(=O)CN1C(=O)C(C)(CC(=O)Nc2ccccc2)C(=O)N(c2ccc(Cl)cc2)c2ccccc21)c1ccccc1 (configuration not stated)	170 to 176
Cn1c(OC2CCOC2)nn(C(=O)NS(=O)(=O)c2ccccc2Br)c1=O (configuration not stated)	191
Cn1nc(-n2ncc(C(N)=S)c2Br)c(Cl)c1OC(F)F	175
CC(C)(C)OC(=O)N[C@@H](Cc1ccccc1)c1nc2c(C(F)(F)F)cccc2c(=O)o1	145
CCc1cnc(Nc2ccccn2)s1	113
CCCN(c1nc(-c2ccc(OC)cc2Cl)c(C)s1)c1cc([N+](=O)[O-])ccc1OC	97
Cc1cc(-c2nncc3c(C(C)(C)C)c(OCc4cccnc4)nn23)no1	139 to 141
Nc1cc(C(F)(F)F)ccc1S(=O)(=O)c1ccccc1	142 to 143
COc1ccc2c(c1OC)CC(c1ccccc1)CC2C#N (configuration not stated)	118 to 121
CC(C)(C)c1cc(-c2nnc(N)s2)cc(C(C)(C)C)c1O	261
CCc1ccc2cc(OC)cc(NC(C)CCCN)c2n1 (configuration not stated)	111 to 114
